Test system: P. falciparum
Experiment: In vitro evaluation of anti-malarial activity (schizont maturation inhibition)
Assay type: cell-based
Conditions: Plasmodium falciparum, 24 h
From the text: All the tests are run in duplicates with in 96 well flat bottomed tissue culture plate and double dilutions are made for each of the test compound with individual control wells only with the RPMI 1640 and human serum supplement.

## CCN(CC)CCCC(C)Nc1ccnc2cc(Cl)ccc12 (stereo not shown) [Chloroquine]
  IC90: 46 nM

Reference: patent US8282968B2, “Bioactive water fraction from Gomphostemma niveum” (The Director General, Defence Research and Development …, priority 2005, dated 2012)
